≈ marks a conversion by molar mass, not a printed value.
Experiments:
Format in all cases: functional
[1] = tested on: Staphylococcus aureus; assay: Antibacterial activity against Staphylococcus aureus MTCC 96 incubated for 24 hrs by macrodilution tube method
[2] = tested on: Bacillus cereus; assay: Antibacterial activity against Bacillus cereus MTCC 430 incubated for 24 hrs by macrodilution tube method
[3] = tested on: Pseudomonas aeruginosa; assay: Antibacterial activity against Pseudomonas aeruginosa ATCC 27853 by CLSI-based broth dilution method
[4] = tested on: Staphylococcus aureus; assay: Antibacterial activity against methicillin-resistant Staphylococcus aureus ATCC 25923 by CLSI-based broth dilution method
[5] = tested on: Escherichia coli; assay: Antibacterial activity against ESBL-producing Escherichia coli ATCC 25925 by CLSI-based broth dilution method
[6] = tested on: Enterococcus faecium; assay: Antibacterial activity against vancomycin-resistant Enterococcus faecium by CLSI-based broth dilution method; conditions: time 24 hrs
[7] = tested on: Staphylococcus aureus; assay: Antibacterial activity against methicillin-sensitive Staphylococcus aureus by CLSI-based broth dilution method
[8] = tested on: Klebsiella pneumoniae; assay: Antibacterial activity against Klebsiella pneumoniae ATCC 27736 by CLSI-based broth dilution method
[9] = tested on: Staphylococcus aureus; assay: Antibacterial activity against Staphylococcus aureus ATCC 29737 incubated for 24 hrs
[10] = tested on: Sphingomonas paucimobilis; assay: Antibacterial activity against Flavobacterium devorans ATCC 10829 incubated for 24 hrs
[11] = tested on: Micrococcus luteus; assay: Antibacterial activity against Micrococcus Luteus ATCC 398 incubated for 24 hrs
[12] = tested on: Bacillus cereus; assay: Antibacterial activity against Bacillus cereus ATCC 6630 incubated for 24 hrs
[13] = tested on: Escherichia coli; assay: Antibacterial activity against Escherichia coli NCIM 2256 incubated for 24 hrs
[14] = tested on: Pseudomonas fluorescens; assay: Antibacterial activity against Pseudomonas fluorescens NCIM 2173 incubated for 24 hrs
[15] = tested on: Bacillus cereus; assay: Antibacterial activity against Bacillus cereus by agar dilution method
[16] = tested on: Pseudomonas aeruginosa; assay: Antibacterial activity against Pseudomonas aeruginosa by agar dilution method
[17] = tested on: Escherichia coli; assay: Antibacterial activity against Escherichia coli by agar dilution method
[18] = tested on: Staphylococcus aureus; assay: Antibacterial activity against Staphylococcus aureus by agar dilution method

Row | SMILES | MIC [1] [µg/mL] | MIC [2] [µg/mL] | MIC [15] [µg/mL] | MIC [16] [µg/mL] | MIC [17] [µg/mL] | MIC [18] [µg/mL] | further results
1 | CC1(C)CC(=O)C2=C(C1)Oc1cc3ccc(OCc4cn(-c5ccnc6cc(Cl)ccc56)nn4)cc3cc1C2c1ccc(Cl)cc1 (stereo unspecified) | 16 (≈ 24.7 µM) | 16 (≈ 24.7 µM) |  |  |  |  | 
2 | N=C(N)c1ccc2[nH]c(-c3ccc(OCc4cn(Cc5ccccc5)nn4)cc3)nc2c1 |  |  |  |  |  |  | MIC [3]: 16 µg/mL (≈ 37.8 µM); MIC [4]: 16 µg/mL (≈ 37.8 µM); MIC [5]: 16 µg/mL (≈ 37.8 µM); MIC [6]: 16 µg/mL (≈ 37.8 µM); MIC [7]: 16 µg/mL (≈ 37.8 µM); MIC [8]: 16 µg/mL (≈ 37.8 µM)
3 | COc1ccc(-n2cc(COc3ccc(-c4nc5cc(C(=N)N)ccc5[nH]4)cc3)nn2)cc1 |  |  |  |  |  |  | MIC [3]: 16 µg/mL (≈ 36.4 µM); MIC [4]: 16 µg/mL (≈ 36.4 µM); MIC [5]: 16 µg/mL (≈ 36.4 µM); MIC [6]: 16 µg/mL (≈ 36.4 µM); MIC [7]: 16 µg/mL (≈ 36.4 µM); MIC [8]: 16 µg/mL (≈ 36.4 µM)
4 | COc1ccc(C2C3=C(CC(C)(C)CC3=O)Oc3cc4ccc(OCc5cn(-c6ccnc7cc(Cl)ccc67)nn5)cc4cc32)cc1 (stereo unspecified) | 16 (≈ 24.9 µM) | 16 (≈ 24.9 µM) |  |  |  |  | 
5 | NC[C@H]1O[C@H](O[C@H]2[C@H](O)[C@@H](O[C@H]3O[C@H](CO)[C@@H](O)[C@H](N)[C@H]3O)[C@H](N)C[C@@H]2N)[C@H](O)[C@@H](O)[C@@H]1O [KANAMYCIN] |  |  |  |  |  |  | MIC [9]: 2 µg/mL (≈ 4.13 µM); MIC [10]: 2 µg/mL (≈ 4.13 µM); MIC [11]: 2 µg/mL (≈ 4.13 µM); MIC [12]: 2 µg/mL (≈ 4.13 µM); MIC [13]: 2 µg/mL (≈ 4.13 µM); MIC [14]: 2 µg/mL (≈ 4.13 µM)
6 | c1ccc(Cn2cc(COc3ccc(-c4nc5cc(C6=NCCN6)ccc5[nH]4)cc3)nn2)cc1 |  |  |  |  |  |  | MIC [3]: 8 µg/mL (≈ 17.8 µM); MIC [4]: 8 µg/mL (≈ 17.8 µM); MIC [5]: 8 µg/mL (≈ 17.8 µM); MIC [6]: 8 µg/mL (≈ 17.8 µM); MIC [7]: 8 µg/mL (≈ 17.8 µM); MIC [8]: 8 µg/mL (≈ 17.8 µM)
7 | CC(C)NC(=N)c1ccc2[nH]c(-c3ccc(OCc4cn(-c5ccccc5)nn4)cc3)nc2c1 |  |  |  |  |  |  | MIC [3]: 8 µg/mL (≈ 17.7 µM); MIC [4]: 8 µg/mL (≈ 17.7 µM); MIC [5]: 8 µg/mL (≈ 17.7 µM); MIC [6]: 8 µg/mL (≈ 17.7 µM); MIC [7]: 8 µg/mL (≈ 17.7 µM); MIC [8]: 8 µg/mL (≈ 17.7 µM)
8 | O=C(N/N=C/c1cn(-c2ccccc2)nc1-c1ccc(Br)cc1)c1cccc(-n2cc(-c3ccccc3)nn2)c1 |  |  | 2 (≈ 3.4 µM) | 2 (≈ 3.4 µM) | 2 (≈ 3.4 µM) | 2 (≈ 3.4 µM) | 

More lines, main results first:

Row | MIC [1] [µg/mL] | MIC [2] [µg/mL] | MIC [15] [µg/mL] | MIC [16] [µg/mL] | MIC [17] [µg/mL] | MIC [18] [µg/mL] | SMILES | further results
9 | 16 (≈ 23.8 µM) | 16 (≈ 23.8 µM) |  |  |  |  | COc1ccc(C2C3=C(CC(C)(C)CC3=O)Oc3cc4ccc(OCc5cn(-c6ccnc7cc(Cl)ccc67)nn5)cc4cc32)cc1OC (stereo unspecified) | 
10 | 16 (≈ 25.5 µM) | 16 (≈ 25.5 µM) |  |  |  |  | CC(C)c1ccc(C2C3=C(CCCC3=O)Oc3cc4ccc(OCc5cn(-c6ccnc7cc(Cl)ccc67)nn5)cc4cc32)cc1 (stereo unspecified) | 
11 |  |  | 2 (≈ 3.57 µM) | 2 (≈ 3.57 µM) | 2 (≈ 3.57 µM) | 2 (≈ 3.57 µM) | O=C(N/N=C/c1cn(-c2ccccc2)nc1-c1cccc2ccccc12)c1cccc(-n2cc(-c3ccccc3)nn2)c1 | 
12 | 16 (≈ 24.1 µM) | 16 (≈ 24.1 µM) |  |  |  |  | CC1(C)CC(=O)C2=C(C1)Oc1cc3ccc(OCc4cn(-c5ccnc6cc(Cl)ccc56)nn4)cc3cc1C2c1cccc2ccccc12 (stereo unspecified) | 
13 | 16 (≈ 25.4 µM) | 16 (≈ 25.4 µM) |  |  |  |  | CC1(C)CC(=O)C2=C(C1)Oc1cc3ccc(OCc4cn(-c5ccnc6cc(Cl)ccc56)nn4)cc3cc1C2c1ccc(F)cc1 (stereo unspecified) | 
14 |  |  | 2 (≈ 3.81 µM) | 2 (≈ 3.81 µM) | 2 (≈ 3.81 µM) | 2 (≈ 3.81 µM) | O=C(N/N=C/c1cn(-c2ccccc2)nc1-c1cccc(O)c1)c1cccc(-n2cc(-c3ccccc3)nn2)c1 | 
15 |  |  | 2 (≈ 3.88 µM) | 2 (≈ 3.88 µM) | 2 (≈ 3.88 µM) | 2 (≈ 3.88 µM) | O=C(N/N=C/c1cn(-c2ccccc2)nc1-c1cccs1)c1cccc(-n2cc(-c3ccccc3)nn2)c1 | 
16 |  |  | 4 (≈ 7.35 µM) | 4 (≈ 7.35 µM) | 4 (≈ 7.35 µM) | 4 (≈ 7.35 µM) | O=C(N/N=C/c1cn(-c2ccccc2)nc1-c1ccc(Cl)cc1)c1cccc(-n2cc(-c3ccccc3)nn2)c1 | 
17 |  |  | 2 (≈ 3.69 µM) | 2 (≈ 3.69 µM) | 2 (≈ 3.69 µM) | 2 (≈ 3.69 µM) | O=C(N/N=C/c1cn(-c2ccccc2)nc1-c1ccc(O)cc1O)c1cccc(-n2cc(-c3ccccc3)nn2)c1 | 
